According to PubChem BioAssay AID256 (DTP/NCI, 2004):
Where “and” joins values, the source holds several entries; their conditions need not be identical. Identical values can stand only once. Inconclusive results and toxic doses are left out. The calls were made as follows: active = survival T/C of 150% or more; inactive = T/C below 125% in these data.

Test system: CD2F1 mice, L1210 leukemia ip, survival T/C
Test: NCI In Vivo Anticancer Drug Screen. Data for tumor model L1210 Leukemia (intraperitoneal) in CD2F1 (CDF1) mice
Details: higher = longer survival
Protocol: The antitumor activity of compounds was measured in mice bearing transplantable tumors. Survival or tumor size were measured and the results are expressed as the measurement made in the treated group (T) divided by the measurement made in the vehicle treated control group (C). The tumor model used in this assay is L1210 Leukemia (intraperitoneal) in CD2F1 (CDF1) mice

[1] = endpoint: mean survival time, dose: 100.0 mg/kg/injection, schedule: Q01DX001 (ip), vehicle: saline with Tween-80
[2] = endpoint: mean survival time, dose: 200.0 mg/kg/injection, schedule: Q01DX001 (ip), vehicle: saline with Tween-80
[3] = endpoint: mean survival time, dose: 75.0 mg/kg/injection, schedule: Q01DX001 (ip), vehicle: saline
[4] = endpoint: mean survival time, dose: 150.0 mg/kg/injection, schedule: Q01DX001 (ip), vehicle: saline
[5] = endpoint: mean survival time, dose: 100.0 mg/kg/injection, schedule: Q01DX009 (ip), vehicle: saline with Tween-80
[6] = endpoint: mean survival time, dose: 100.0 mg/kg/injection, schedule: Q04DX003 (ip), vehicle: saline with Tween-80
[7] = endpoint: mean survival time, dose: 200.0 mg/kg/injection, schedule: Q01DX009 (ip), vehicle: saline with Tween-80
[8] = endpoint: mean survival time, dose: 200.0 mg/kg/injection, schedule: Q04DX003 (ip), vehicle: saline with Tween-80
[9] = endpoint: mean survival time, dose: 400.0 mg/kg/injection, schedule: Q01DX009 (ip), vehicle: saline with Tween-80
[10] = endpoint: mean survival time, dose: 400.0 mg/kg/injection, schedule: Q04DX003 (ip), vehicle: saline with Tween-80
[11] = endpoint: mean survival time, dose: 50.0 mg/kg/injection, schedule: Q01DX009 (ip), vehicle: Klucel (hydroxypropylcellulose) (HPC)
[12] = endpoint: mean survival time, dose: 100.0 mg/kg/injection, schedule: Q01DX009 (ip), vehicle: Klucel (hydroxypropylcellulose) (HPC)
[13] = endpoint: mean survival time, dose: 200.0 mg/kg/injection, schedule: Q01DX009 (ip), vehicle: Klucel (hydroxypropylcellulose) (HPC)
[14] = endpoint: mean survival time, dose: 400.0 mg/kg/injection, schedule: Q01DX009 (ip), vehicle: Klucel (hydroxypropylcellulose) (HPC)
[15] = endpoint: mean survival time, dose: 100.0 mg/kg/injection, schedule: Q04DX003 (ip), vehicle: Klucel (hydroxypropylcellulose) (HPC)
[16] = endpoint: mean survival time, dose: 200.0 mg/kg/injection, schedule: Q04DX003 (ip), vehicle: Klucel (hydroxypropylcellulose) (HPC)
[17] = endpoint: mean survival time, dose: 100.0 mg/kg/injection, schedule: Q04DX002 (ip), vehicle: saline with Tween-80
[18] = endpoint: mean survival time, dose: 400.0 mg/kg/injection, schedule: Q04DX002 (ip), vehicle: saline with Tween-80

Measured: T/C

CC(=O)OCCCOC(C)=O
inactive: [1] 93 % of control | [2] 112 % of control | endpoint: mean survival time, dose: 400.0 mg/kg/injection, schedule: Q01DX001 (ip), vehicle: saline with Tween-80 101 % of control

C[As](C)SCC1OC(n2ccc(=O)[nH]c2=O)CC1O (centres undefined)
inactive: endpoint: median survival time, dose: 12.5 mg/kg/injection, schedule: Q01DX005 (ip), vehicle: distilled water + Tween-80 97 % of control | endpoint: median survival time, dose: 25.0 mg/kg/injection, schedule: Q01DX005 (ip), vehicle: distilled water + Tween-80 104 % of control | endpoint: median survival time, dose: 50.0 mg/kg/injection, schedule: Q01DX005 (ip), vehicle: distilled water + Tween-80 106 % of control | endpoint: median survival time, dose: 100.0 mg/kg/injection, schedule: Q01DX005 (ip), vehicle: distilled water + Tween-80 109 % of control

CC(=O)OCC1OC(N2C(=O)C=CC2=O)C(OC(C)=O)C1OC(C)=O (centres undefined)
inactive: endpoint: mean survival time, dose: 1.56 mg/kg/injection, schedule: Q01DX005 (ip), vehicle: water 110 % of control | endpoint: mean survival time, dose: 3.13 mg/kg/injection, schedule: Q01DX005 (ip), vehicle: water 96 % of control | endpoint: mean survival time, dose: 6.25 mg/kg/injection, schedule: Q01DX005 (ip), vehicle: water 104 % of control | endpoint: mean survival time, dose: 12.5 mg/kg/injection, schedule: Q01DX005 (ip), vehicle: water 95 % of control and 102 % of control | endpoint: mean survival time, dose: 25.0 mg/kg/injection, schedule: Q01DX005 (ip), vehicle: water 106 % of control

COc1cc2ccc(-c3cc(C(=O)O)c4ccccc4n3)cc2cc1OC
inactive: [3] 93 % of control | [4] 93 % of control

NC(CCSCc1ccccc1)C(=O)O (centres undefined)
inactive: [5] 91 % of control | [6] 98 % of control | [7] 91 % of control | [8] 93 % of control | [9] 91 % of control | [10] 95 % of control

O=[N+]([O-])c1ccc(O/N=C(\CN2CCCC2)c2ccc(Cl)cc2)c([N+](=O)[O-])c1
inactive: endpoint: mean survival time, dose: 100.0 mg/kg/injection, schedule: Q01DX001 (ip), vehicle: Klucel (hydroxypropylcellulose) (HPC) 90 % of control | endpoint: mean survival time, dose: 200.0 mg/kg/injection, schedule: Q01DX001 (ip), vehicle: Klucel (hydroxypropylcellulose) (HPC) 87 % of control | endpoint: mean survival time, dose: 400.0 mg/kg/injection, schedule: Q01DX001 (ip), vehicle: Klucel (hydroxypropylcellulose) (HPC) 98 % of control

O=C1C(Br)=CC(Br)(Br)C=C1Br
inactive: [5] 88 % of control | [7] 91 % of control | [9] 86 % of control

Nc1ccc(S(=O)(=O)Nc2ccccc2C(=O)O)cc1
inactive: endpoint: mean survival time, dose: 37.5 mg/kg/injection, schedule: Q01DX001 (ip), vehicle: saline with Tween-80 102 % of control | endpoint: mean survival time, dose: 75.0 mg/kg/injection, schedule: Q01DX001 (ip), vehicle: saline with Tween-80 101 % of control | endpoint: mean survival time, dose: 150.0 mg/kg/injection, schedule: Q01DX001 (ip), vehicle: saline with Tween-80 95 % of control

CC(=O)Oc1cc(-c2ccccc2)c(OC(C)=O)c(N=[N+]=[N-])c1C
inactive: [1] 101 % of control | [2] 108 % of control

CCOC(CNC(C)c1ccc2cc(OC)c(OC)cc2c1)OCC (centres undefined)
inactive: endpoint: mean survival time, dose: 12.5 mg/kg/injection, schedule: Q01DX009 (ip), vehicle: Klucel (hydroxypropylcellulose) (HPC) 97 % of control | endpoint: mean survival time, dose: 25.0 mg/kg/injection, schedule: Q01DX009 (ip), vehicle: Klucel (hydroxypropylcellulose) (HPC) 92 % of control | [11] 89 % of control | [12] 95 % of control | [13] 100 % of control | [14] 90 % of control

Oc1c(Cl)c(Cl)c(Cl)c2ccccc12
inactive: [6] 100 % of control | [8] 97 % of control | [10] 100 % of control

O=c1cc(O)cn[nH]1
inactive: endpoint: mean survival time, dose: 25.0 mg/kg/injection, schedule: Q01DX009 (ip), vehicle: other 97 % of control | endpoint: mean survival time, dose: 50.0 mg/kg/injection, schedule: Q01DX009 (ip), vehicle: other 97 % of control | endpoint: mean survival time, dose: 100.0 mg/kg/injection, schedule: Q01DX009 (ip), vehicle: other 104 % of control | endpoint: mean survival time, dose: 200.0 mg/kg/injection, schedule: Q01DX009 (ip), vehicle: other 102 % of control | endpoint: mean survival time, dose: 400.0 mg/kg/injection, schedule: Q01DX009 (ip), vehicle: other 102 % of control

O=C1NN=C2CCCCC12 (centres undefined)
inactive: [12] 97 % of control | [13] 96 % of control | [14] 102 % of control

O=C(Oc1ccc(OC(=O)c2ccccc2)c([N+](=O)[O-])c1)c1ccccc1
inactive: [3] 89 % of control | [4] 98 % of control | endpoint: mean survival time, dose: 300.0 mg/kg/injection, schedule: Q01DX001 (ip), vehicle: saline 98 % of control

O=C(O)CCCc1cc(O)c2c(c1O)C(=O)c1ccccc1C2=O
inactive: endpoint: mean survival time, dose: 50.0 mg/kg/injection, schedule: Q04DX003 (ip), vehicle: saline with Tween-80 120 % of control | [6] 104 % of control | [8] 101 % of control

N#C/C(=C\c1cc(Cl)ccc1O)C1CCC([N+](=O)[O-])CC1 (centres undefined)
inactive: [5] 86 % of control | [7] 93 % of control | [9] 91 % of control

CS(=O)(=O)c1nnc(-c2ccccc2)s1
inactive: [15] 90 % of control | [16] 90 % of control

COc1ccc(NC(=O)Nc2cccc(O)c2)c(Cl)c1
inactive: [11] 95 % of control | [12] 98 % of control | [15] 102 % of control | [13] 95 % of control | [16] 112 % of control | endpoint: mean survival time, dose: 400.0 mg/kg/injection, schedule: Q04DX003 (ip), vehicle: Klucel (hydroxypropylcellulose) (HPC) 104 % of control

OC1CCCC(O)C1O (centres undefined)
inactive: endpoint: mean survival time, dose: 100.0 mg/kg/injection, schedule: Q04DX003 (ip), vehicle: saline 101 % of control | endpoint: mean survival time, dose: 200.0 mg/kg/injection, schedule: Q04DX003 (ip), vehicle: saline 97 % of control | endpoint: mean survival time, dose: 400.0 mg/kg/injection, schedule: Q04DX003 (ip), vehicle: saline 101 % of control

O=Cc1cc(Cl)cc(Cl)c1O
inactive: [6] 96 % of control | [8] 98 % of control

O=C([O-])[O-].O=S(=O)(O)O.[Co+3].[NH2-].[NH2-].[NH2-].[NH2-]
inactive: [17] 100 % of control | [18] 107 % of control

NC(=O)c1c(Br)n(C2OC(CO)C(O)C2O)c2ncnc(N)c12 (centres undefined)
inactive: endpoint: mean survival time, dose: 50.0 mg/kg/injection, schedule: Q01DX009 (ip), vehicle: saline with Tween-80 105 % of control

CC[N+](C)(CC)CCOC(=O)c1ccccc1Oc1ccc(C)cc1
inactive: endpoint: mean survival time, dose: 25.0 mg/kg/injection, schedule: Q01DX009 (ip), vehicle: saline 107 % of control | endpoint: mean survival time, dose: 50.0 mg/kg/injection, schedule: Q01DX009 (ip), vehicle: saline 107 % of control

CCOC(=O)NC(S(=O)(=O)O)S(=O)(=O)O.[Tl]
inactive: endpoint: mean survival time, dose: 6.25 mg/kg/injection, schedule: Q01DX001 (ip), vehicle: saline with Tween-80 98 % of control | endpoint: mean survival time, dose: 12.5 mg/kg/injection, schedule: Q01DX001 (ip), vehicle: saline with Tween-80 90 % of control | endpoint: mean survival time, dose: 25.0 mg/kg/injection, schedule: Q01DX001 (ip), vehicle: saline with Tween-80 98 % of control

O=C(/C=C(/c1ccccc1)P(=O)(c1ccccc1)c1ccccc1)c1ccccc1
inactive: [6] 98 % of control | [8] 93 % of control | [10] 88 % of control

COc1ccccc1NC(=O)Oc1ccc(Cl)cc1C
inactive: [17] 103 % of control | endpoint: mean survival time, dose: 200.0 mg/kg/injection, schedule: Q04DX002 (ip), vehicle: saline with Tween-80 100 % of control | [18] 95 % of control
